Consider 36 compounds from US9447044B2, “Thioaryl derivatives as GPR120 agonists” (LG LIFE SCIENCES LTD., priority 2012, dated 2016).

In one assay the target is T1, hGPR120 (Homo sapiens, UniProt Q5NUL3).
T1 construct: expressed in transfected cells; host or cells: CHO-K1
T1 sequence (Q5NUL3 1-361): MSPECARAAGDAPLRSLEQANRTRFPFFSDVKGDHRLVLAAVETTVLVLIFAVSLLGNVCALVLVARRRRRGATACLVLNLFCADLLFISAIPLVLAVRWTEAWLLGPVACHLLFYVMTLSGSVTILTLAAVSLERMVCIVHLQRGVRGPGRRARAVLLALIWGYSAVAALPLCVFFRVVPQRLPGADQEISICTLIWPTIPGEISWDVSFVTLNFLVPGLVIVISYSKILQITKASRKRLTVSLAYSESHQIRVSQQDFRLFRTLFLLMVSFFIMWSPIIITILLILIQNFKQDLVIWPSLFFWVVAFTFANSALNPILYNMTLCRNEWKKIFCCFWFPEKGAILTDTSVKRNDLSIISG
The assay can be described thus: Measurement of activity of GPR120 agonist (cell-based assay), calcium fluorescence. The conditions noted are these: CHO-K1 cells expressing Ga16 and hGPR120; Calcium 5 dye fluorescence; activity class. The procedure:
CHO-K1 cells expressing Ga16 and hGPR120 were dispensed into each well of a 96-well plate (3×10^4 cells/100 μl/well) and then incubated in 5% CO2, 37° C. incubator for 18 hours. Each well was treated with 100 μl of Calcium 5 dye (Molecular Devices) solution including 2% DMSO and then incubated in 5% CO2, 37° C. incubator for 1 hour. Serially diluted GPR120 agonists were prepared to a final concentration of 0.5% DMSO in a 96-well plate. Each well was treated with 50 μl of the agonist compounds using Plexstation II, and then fluorescence was measured at Ex 485 nm, Em 525 nm.
Fluorescence increased by the serially diluted GPR120 agonists is calculated as a relative percent (%) value based on the fluorescence represented by the treatment of 0.1% DMSO only. […] The calculation of measurement was carried out by using statistical software (Prizm).
Activity is denoted based on the following criteria: A=>20 μM, B=[…], C=2˜0.2 μM, D=<0.2 μM
`CC(C)(C)Sc1ncccc1COc1c(F)cc(CCC(=O)O)cc1F` [Example 16, 3-[4-(2-t-butylsulfanyl-pyridin-3-ylmethoxy)-3,5-difluoro-phenyl]-propionic acid]: the EC50 is less than 200 nM. With `O=C(O)CCc1cc(F)c(OCc2cccnc2SCC2CC2)c(F)c1` [Example 17, 3-[4-(2-cyclopropylmethylsulfanyl-pyridin-3-ylmethoxy)-3,5-difluoro-phenyl]-propionic acid], the EC50 was less than 200 nM.

As for `O=C(O)CCc1cc(F)c(OCc2cccnc2SCC(F)(F)F)c(F)c1` [Example 18, 3-{3,5-difluoro-4-[2-(2,2,2-trifluoro-ethylsulfanyl)-pyridin-3-ylmethoxy]-phenyl}-propionic acid], the EC50 was in the range of 200 to 2000 nM.

For the compound `CCC(C)Sc1ncccc1COc1c(F)cc(CCC(=O)O)cc1F` (stereo not drawn) [Example 19, 3-[4-(2-sec-butylsulfanyl-pyridin-3-ylmethoxy)-3,5-difluoro-phenyl]-propionic acid], the EC50 is less than 200 nM. On to `CC(C)Sc1nccnc1COc1c(F)cc(CCC(=O)O)cc1F` [Example 20, 3-[3,5-difluoro-4-(3-isopropylsulfanyl-pyrazin-2-ylmethoxy)-phenyl]-propionic acid], for which the EC50 is 200 to 2000 nM. In the case of `O=C(O)CCc1cc(F)c(OCc2cccnc2SC2CCCCC2)c(F)c1` [Example 22, 3-[4-(2-cyclohexylsulfanyl-pyridin-3-ylmethoxy)-3,5-difluoro-phenyl]-propionic acid], the EC50 was in the range of 200 to 2000 nM. Still for that read-out and setting: the same measure for `O=C(O)CCc1cc(F)c(OCc2cccnc2SC2CCC2)c(F)c1` [Example 23, 3-[4-(2-cyclobutylsulfanyl-pyridin-3-ylmethoxy)-3,5-difluoro-phenyl]-propionic acid]: less than 200 nM. As to `CC(C)Sc1nccc(COc2c(F)cc(CCC(=O)O)cc2F)n1` [Example 24, 3-[3,5-difluoro-4-(2-isopropylsulfanyl-pyrimidin-4-ylmethoxy)-phenyl]-propionic acid], the 50% effective concentration (EC50) fell in the range of 200 to 2000 nM. The same measure, in the same setting: the figure for `CC(Cc1ccc(OCc2cccnc2SC2CCCC2)cc1)C(=O)O` (stereo not drawn) [Example 25, 3-[4-(2-cyclopentylsulfanyl-pyridin-3-ylmethoxy)-phenyl]-2-methyl-propionic acid] is less than 200 nM; for `CCCCSc1ncccc1COc1c(F)cc(CCC(=O)O)cc1F` [Example 26, 3-[4-(2-butylsulfanyl-pyridin-3-ylmethoxy)-3,5-difluoro-phenyl]-propionic acid] it is less than 200 nM; for `O=C(O)CCc1cc(F)c(OCc2cccnc2SCCC(F)(F)F)c(F)c1` [Example 27, 3-{3,5-difluoro-4-[2-(3,3,3-trifluoro-propylsulfanyl)-pyridin-3-ylmethoxy]-phenyl}-propionic acid] it is 200 to 2000 nM. Still for that read-out and setting: the same measure for `CC(C)(C)CSc1ncccc1COc1c(F)cc(CCC(=O)O)cc1F` [Example 28, 3-{4-[2-(2,2-dimethyl-propylsulfanyl)-pyridin-3-ylmethoxy]-3,5-difluoro-phenyl}-propionic acid]: 200 to 2000 nM; for `O=C(O)CCc1ccc(OCc2cccc(SC3CCCC3)n2)cc1` [Example 29]: less than 200 nM.

Regarding `O=C(O)CCc1cc(F)c(OCc2cccc(SC3CCCC3)n2)c(F)c1` [Example 30], the EC50 is less than 200 nM.

Take `O=C(O)CCc1cc(F)c(OCc2cccc(SC3CCCCC3)n2)c(F)c1` [Example 31]: the EC50 is less than 200 nM. As to `CCc1ccc(COc2c(F)cc(CCC(=O)O)cc2F)c(SC(C)C)n1` [Example 32], the EC50 was in the range of 200 to 2000 nM. Turning to `CC(C)Sc1cccc(COc2c(F)cc(CCC(=O)O)cc2F)n1` [Example 33, 3-[3,5-difluoro-4-(6-isopropylsulfanyl-pyridin-2-ylmethoxy)-phenyl]-propionic acid], the EC50 was less than 200 nM. The same measure, in the same setting: the same measure for `CCC(C)Sc1cccc(COc2c(F)cc(CCC(=O)O)cc2F)n1` (stereo not drawn) [Example 34, 3-[4-(6-sec-butylsulfanyl-pyridin-2-ylmethoxy)-3,5-difluoro-phenyl]-propionic acid]: less than 200 nM.

With `O=C(O)C1CC1c1cc(F)c(OCc2cccc(SC3CCCC3)n2)c(F)c1` (stereo not drawn) [Example 35, 2-[4-(6-cyclopentylsulfanyl-pyridin-2-ylmethoxy)-3,5-difluoro-phenyl]-cyclopropane carboxylic acid], the EC50 was less than 200 nM.

`O=C(O)C1CC1c1cc(F)c(OCc2cccnc2SC2CCC2)c(F)c1` (stereo not drawn) [Example 36, 2-[4-(2-cyclobutylsulfanyl-pyridin-3-ylmethoxy)-3,5-difluoro-phenyl]-cyclopropane carboxylic acid]: the EC50 is less than 200 nM.

Consider `CC(Cc1ccc(OCc2cccnc2SC2CCC2)c(F)c1)C(=O)O` (stereo not drawn) [Example 37, 3-[4-(2-cyclobutylsulfanyl-pyridin-3-ylmethoxy)-3-fluoro-phenyl]-2-methyl-propionic acid], for which the EC50 is less than 200 nM. The same measure, in the same setting: the figure for `CC(Cc1ccc(OCc2cccnc2SC2CCCC2)c(F)c1)C(=O)O` (stereo not drawn) [Example 38, 3-[4-(2-cyclopentylsulfanyl-pyridin-3-ylmethoxy)-3-fluoro-phenyl]-2-methyl-propionic acid] is less than 200 nM; for `CCC(C)Sc1ncccc1COc1ccc(CC(C)C(=O)O)cc1F` (stereo not drawn) [Example 39, 3-[4-(2-sec-butylsulfanyl-pyridin-3-ylmethoxy)-3-fluoro-phenyl]-2-methyl-propionic acid] it is less than 200 nM; for `CC(Cc1ccc(OCc2cccnc2SCC2CC2)c(F)c1)C(=O)O` (stereo not drawn) [Example 40, 3-[4-(2-cyclopropylmethylsulfanyl-pyridin-3-ylmethoxy)-3-fluoro-phenyl]-2-methyl-propionic acid] it is less than 200 nM. Still for that read-out and setting: the same measure for `CC(C)Sc1ncccc1COc1c(F)cc(CC(C)C(=O)O)cc1F` (stereo not drawn) [Example 41, 3-[3,5-difluoro-4-(2-isopropylsulfanyl-pyridin-3-ylmethoxy)-phenyl]-2-methyl-propionic acid]: less than 200 nM; for `CCC(C)Sc1ncccc1COc1c(F)cc(CC(C)C(=O)O)cc1F` (stereo not drawn) [Example 42, 3-[4-(2-sec-butylsulfanyl-pyridin-3-ylmethoxy)-3,5-difluoro-phenyl]-2-methyl-propionic acid]: 200 to 2000 nM.

Consider `COc1ccc(COc2c(F)cc(CCC(=O)O)cc2F)c(SC(C)C)n1` [Example 43, 3-[3,5-difluoro-4-(2-isopropylsulfanyl-6-methoxy-pyridin-3-ylmethoxy)-phenyl]-propionic acid], for which the EC50 was less than 200 nM.

On to `CC(Cc1cc(F)c(OCc2cccc(SC3CCCC3)n2)c(F)c1)C(=O)O` (stereo not drawn) [Example 44, 3-[4-(6-cyclopentylsulfanyl-pyridin-2-ylmethoxy)-3,5-difluoro-phenyl]-2-methyl-propionic acid], for which the EC50 was less than 200 nM. With `Cc1ccc(COc2c(F)cc(CCC(=O)O)cc2F)c(SC2CCCC2)n1` [Example 45, 3-[4-(2-cyclopentylsulfanyl-6-methyl-pyridin-3-ylmethoxy)-3,5-difluoro-phenyl]-propionic acid], the EC50 is less than 200 nM. Consider `CC(Cc1cc(F)c(OCc2cccc(SC3CCC3)n2)c(F)c1)C(=O)O` (stereo not drawn) [Example 46, 3-[4-(6-cyclobutylsulfanyl-pyridin-2-ylmethoxy)-3,5-difluoro-phenyl]-2-methyl-propionic acid], for which the EC50 was less than 200 nM. The same measure, in the same setting: the figure for `CC(Cc1cc(F)c(OCc2cccnc2SC2CCCC2)c(F)c1)C(=O)O` (stereo not drawn) [Example 47, 3-[4-(2-cyclopentylsulfanyl-pyridin-3-ylmethoxy)-3,5-difluoro-phenyl]-2-methyl-propionic acid] is less than 200 nM; for `CCC(C)Sc1cccc(COc2c(F)cc(CC(C)C(=O)O)cc2F)n1` (stereo not drawn) [Example 48, 3-[4-(6-sec-butylsulfanyl-pyridin-2-ylmethoxy)-3,5-difluoro-phenyl]-2-methyl-propionic acid] it is 200 to 2000 nM. Still for that read-out and setting: the figure for `CC(C)Sc1cccc(COc2c(F)cc(CC(C)C(=O)O)cc2F)n1` (stereo not drawn) [Example 49, 3-[3,5-difluoro-4-(6-isopropylsulfanyl-pyridin-2-ylmethoxy)-phenyl]-2-methyl-propionic acid] is less than 200 nM; for `CC(Cc1cc(F)c(OCc2cccnc2SCC2CC2)c(F)c1)C(=O)O` (stereo not drawn) [Example 50, 3-[4-(2-cyclopropylmethylsulfanyl-pyridin-3-ylmethoxy)-3,5-difluoro-phenyl]-2-methyl-propionic acid] it is less than 200 nM; for `CCCSc1ncccc1COc1c(F)cc(CC(C)C(=O)O)cc1F` (stereo not drawn) [Example 51, 3-[3,5-difluoro-4-(2-propylsulfanyl-pyridin-3-ylmethoxy)-phenyl]-2-methyl-propionic acid] it is less than 200 nM.

The assay is the same for the next values; noted with them: CHO-K1 cells expressing Ga16 and hGPR120; Calcium 5 dye fluorescence; numeric value.
For the compound `O=C(O)CCCc1ccc(OCc2cccnc2SC2CCCC2)cc1` [Example 21, 4-[4-(2-cyclopentylsulfanyl-pyridin-3-ylmethoxy)-phenyl]-butyric acid], the half-maximal effective concentration (EC50) was 68 nM.
